According to patent US8945847B2, “Methods and kits for ascertaining biosafety of an agent” (Yissum Research Development Company of the Hebrew …, priority 2010, dated 2015):
Each block holds one molecule with its values, some of them ahead of it.

Columns and labels:
mouse = details: in vivo; cited from earlier work
human = details: in vivo; cited from earlier work
[1] = test system: human embryoid bodies (H9 HESCs); test: DNA microarray global gene expression profiling of treated HESC embryoid bodies; details: for genes whose expression was significantly changed (over two-fold) relative to untreated controls: EBs treated seven days
Protocol: Differentiation in-vitro into embryoid bodies (EBs) was performed by trypsinizing confluent cultures using 0.25% trypsin-A in DPBS solution (Biological industries, Beit-Haemek, Israel) for 15 seconds to dissociate the colonies into large clumps. Clumps were then transferred 1:1 into non-stick petri dishes and grown in regular HESC medium but without exogenous FGF2.
Drug treatments: Embryoid body media were supplemented with the various treatment compounds on the first day and changed on alternate days. […] Thalidomide (Sigma, T144) was dissolved in DMSO at 1000× stock solution and used at a final concentration of 10 μg/ml. All-trans-Retinoic acid (Sigma, R2625) was dissolved in DMSO at 100,000× stock solution and used at a final concentration of 1 μM.
Microarray data analysis: Following seven days in culture, embryoid bodies were harvested and RNA was extracted using RBC Bioscience (Taipei, Taiwan) total RNA extraction minikit (YRB50) according to the manufacturer's protocol. Hybridization to GeneChip Human Gene 1.0 ST expression arrays, washing and scanning were performed according to the manufacturer's protocol (Affymetrix). Arrays were analyzed using RMA probeset condensation algorithm (Expression Console, Affymetrix). […] Tissue specific genes were identified by comparing the expression of each of the five most relevant tissues to the mean expression of all other tissues (testis, brain, heart, spleen, skeletal muscle, kidney, liver, and breast). The top 200 genes by fold change for every tissue were regarded to be tissue specific genes.
Genes were considered differentially expressed when changed over two-fold. […] Significance was calculated separately for each test using a Chi-Square independence test and corrected for multiple testing (Bonferroni). […] Functional classification and significance were performed using the DAVID online functional annotation tool (worldwidewebdotdaviddotabccdotncifcrfdotgov/) using default settings, with a minimum p-value of 0.0001. General annotations with over 2000 members were removed from the analysis.

rodents = details: in vivo; cited from earlier work
[2] = test system: AFP, SOX17, HOXA1, NCAM1 in EBs; test: Immunofluorescent labeling of treated EBs; format: cell-based, human
Protocol: Immunofluorescent labeling: EBs were treated for seven days with either 1.5% ethanol or 1 μM all-trans-retinoic acid (see Drug Treatment section). EBs were let to settle and perfused with 10% sucrose-PBS solution for 30 minutes at 4° C., followed by an additional step in 30% sucrose-PBS solution for 1 hr at 4° C., with gentle shaking. EBs were then frozen in Tissue-Tek OCT solution (Sakura Finetek, USA) and cut into 9 μm sections. Samples were fixed following sectioning with PBS buffered 4% formaldehyde solution for 3 minutes. Blocking was performed with PBS, 2% BSA, 0.1% Triton x-100 solution for 1 hour at room temperature. Sections were incubated overnight at 4° C. with the following primary antibodies; AFP at 1:50 dilution (SC-8399, Santa-Cruz); HOXA1 at 1:50 dilution (SC-17146, Santa-Cruz); NCAM-1 at 1:150 dilution (AF2408, R&D Systems); SOX17 at 1:400 dilution (AF1924, R&D Systems). The sections were then incubated for 1 hour with the appropriate secondary antibody (Cy-3, Jackson ImmunoResearch) at room temperature. Finally, sections were counterstained with Hoechst (B2883, Sigma) for 10 minutes at room temperature.
Specifically, the protein levels of the fetal liver specific gene AFP and the earlier endodermal marker SOX17 were examined to assess the effects of ethanol treatment. The effect of RA treatment on neural differentiation was determined using antibodies for the HOXA1 protein and the neuronal specific protein NCAM1.

[3] = test system: HiPSC EBs (hTERT-BJ1 derived clone #28); test: DNA microarray gene expression profiling of RA-treated HiPSC embryoid bodies; format: cell-based, human; details: RA 1 μM, seven days
Protocol: Thalidomide was tested twice and caffeine once.

[4] = lithium chloride 1 mM, caffeine 50 mg/ml, RA 1 μM, thalidomide 10 μg/ml
[5] = Gene Ontology functional annotation (DAVID), thalidomide 10 μg/ml
[6] = seven days, RA 1 μM, thalidomide 10 μg/ml

genes whose expression was significantly changed (over two-fold) relative to untreated controls [1, 4]: several hundred | downregulation of oxidative stress response genes, enrichment [1, 5]: 15.8 fold | nervous system development genes affected, enrichment [1, 5]: 2.5 fold | transforming growth factor beta genes affected, enrichment [1, 5]: 29.6 fold | upregulation of genes responsible for metabolism of xenobiotics, enrichment [1, 5]: 11.5 fold | fold enrichment of brain specific genes in upregulated genes [1, 6]: 12.5 fold | fold enrichment of liver specific genes in downregulated genes ([1]; seven days, thalidomide 10 μg/ml): 4.4 fold
SMILES: O=C1CCC(N2C(=O)c3ccccc3C2=O)C(=O)N1 (centres unmarked) [thalidomide, Thalidomide]
teratogenicity in the mouse (mouse): not identified prospectively as such | teratogenicity in humans (human): strong human teratogen

SMILES: CC(=O)Oc1ccccc1C(=O)O [aspirin]
teratogenicity in rodents (rodents): teratogenic | teratogenicity in humans (human): not in humans

genes whose expression was significantly changed (over two-fold) relative to untreated controls ([1]; 0.5% ethanol (v/v)): little or no effect | genes whose expression was significantly changed (over two-fold) relative to untreated controls ([1]; ethanol 1.5% and 2%, analyzed together): several hundred | liver protein genes, upregulated functional group enrichment ([1]; Gene Ontology functional annotation (DAVID), ethanol treated EBs): 9.3 fold | expression of later adult hepatic markers (albumin, alcohol dehydrogenase genes) ([1]; ethanol treated EBs): not upregulated
SMILES: CCO [ethanol, Ethanol]
AFP staining (protein level) ([2]; 1.5% ethanol, seven days): dramatic increase | SOX17 staining (protein level) ([2]; 1.5% ethanol, seven days): dramatic increase | AFP staining (protein level) ([2]; 1.5% ethanol, seven days, listed as Ethanol): elevation of AFP staining | enriched functional annotations for downregulated genes ([1]; DAVID functional annotation, ethanol): no significantly enriched functional annotations | expression of early hepatic markers (AFP, transthyretin, apolipoprotein and fibrinogen genes) ([1]; high ethanol (1.5% and 2%)): specifically upregulated

genes whose expression was significantly changed (over two-fold) relative to untreated controls [1, 4]: several hundred | homeobox protein genes enriched in upregulated genes, fold above expected frequency ([1]; Gene Ontology functional annotation (DAVID), RA 1 μM): 14.1 fold | fold enrichment of heart specific genes in downregulated genes ([1]; seven days, RA 1 μM): 5.3 | fold enrichment of brain specific genes in upregulated genes [1, 6]: 2.6 fold
SMILES: CC1=C(/C=C/C(C)=C/C=C/C(C)=C/C(=O)O)C(C)(C)CCC1 [RA, All-trans-Retinoic acid]
expression of anterior HoxA and HoxB genes [3]: specifically upregulated | NCAM1 abundance at the protein level ([2]; 1 μM all-trans-retinoic acid, seven days): increase | differentiation into the neuronal lineage (HOXA1 and NCAM1 labeling) ([2]; RA treatment): higher differentiation into the neuronal lineage | expression of anterior HoxA and HoxB genes ([1]; HESC EBs, RA 1 μM, seven days): specifically upregulated | HOXA1 overexpression at the mRNA level ([1]; RA 1 μM, seven days, relative to control): 13.6 fold
